Reference: patent publication US20070276034A1, “Compounds, compositions and methods for the treatment of synucleinopathies” (priority 2002, published 2007)
Like-named read-outs stand apart in the source and are kept apart here.

Tests used:
Assay type in all cases: biochemical
monomeric Aβ 1-42 = molecular target: T1, monomeric Aβ 1-42 (Homo sapiens, UniProt P05067); assay: SDS-PAGE/Western blot of Aβ 1-42 after incubation with compounds; details: 25 μM pre-fibrillized Aβ 1-42, 37° C., 3 days, 0.2 μm filtrate, antibody 6E10
T1 construct: purchased Bachem Inc
Experimental: In this latter study, triplicate samples of pre-fibrillized Aβ 1-42 (25 μM) was incubated at 37° C. for 3 days, alone or in the presence of the compounds or EDTA. Five micrograms of each sample was then filtered through a 0.2 μm filter. Protein recovered from the filtrate was then loaded, and ran on a 10-20% Tris-Tricine SDS-PAGE, blotted to nitrocellulose and detected using an Aβ-antibody (clone 6E10; Senetek).

IAPP fibrils [1] = molecular target: T2, IAPP fibrils (Homo sapiens, UniProt P10997); assay: Congo red binding assay with IAPP fibrils; details: 3-day incubation
T2 construct: purchased Bachem Inc
T2 sequence (P10997 34-70 limits assumed): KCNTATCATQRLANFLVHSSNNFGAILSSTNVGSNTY
Experimental: (§1) In the Congo red binding assay the ability of a given test compound to alter amyloid (in this case, IAPP) binding to Congo red is quantified. In this assay, IAPP and test compounds were incubated for 3 days and then vacuum filtered through a 0.2 μm filter. The amount of IAPP retained in the filter was then quantitated following staining of the filter with Congo red. After appropriate washing of the filter, any lowering of the Congo red color on the filter in the presence of the test compound (compared to the Congo red staining of the amyloid protein in the absence of the test compound) was indicative of the test compound's ability to diminish/alter the amount of aggregated and congophilic IAPP.
In the study, the ability of IAPP fibrils to bind Congo red in the absence or presence of increasing amounts of the compounds or EDTA (at IAPP:test compound weight ratios of 1:1, 1:0.1, 1:0.01 or 1:0.001) was determined.

Aβ 1-42 fibrils [2] = molecular target: T3, Aβ 1-42 fibrils (Homo sapiens, UniProt P05067); assay: Thioflavin T fluorometry - disruption of pre-formed Aβ 1-42 Alzheimer's fibrils; details: 25 μM pre-fibrillized Aβ 1-42, 37° C., 3 days, read-out: % Inhibition Aβ (result ± S.D.)
T3 construct: purchased Bachem Inc
Source text: In one study, Thioflavin T fluorometry was used to determine the effects of the compounds, and of EDTA (as a negative control). In this assay Thioflavin T binds specifically to fibrillar amyloid, and this binding produces a fluorescence enhancement at 485 nm that is directly proportional to the amount of amyloid fibrils formed. The higher the fluorescence, the greater the amount of amyloid fibrils formed (Naki et al., Lab. Invest. 65:104-110, 1991; Levine III, Protein Sci. 2:404-410, 1993; Amyloid: Int. J. Exp. Clin. Invest. 2:1-6, 1995).
(§2) In this study, 25 μM of pre-fibrillized Aβ 1-42 (Bachem Inc) was incubated at 37° C. for 3 days either alone, or in the presence of one of the compounds or EDTA (at Aβ:test compound weight ratios of 1:1, 1:0.1, 1:0.01 or 1:0.001). Following 3-days of co-incubation, 50 μl of each incubation mixture was transferred into a 96-well microtiter plate containing 150 μl of distilled water and 50 μl of a Thioflavin T solution (i.e. 500 mM Thioflavin T in 250 mM phosphate buffer, pH 6.8). The fluorescence was read at 485 nm (444 nm excitation wavelength) using an ELISA plate fluorometer after subtraction with buffer alone or compound alone, as blank.

Aβ 1-42 fibrils [3] = molecular target: T3, Aβ 1-42 fibrils; assay: Circular dichroism spectroscopy of Aβ 1-42 fibrils; details: 3 days co-incubation, 25 μM Aβ 1-42 (FIG. 1, FIG. 2)
Experimental: Circular dichroism (CD) spectroscopy is a method that can be used to determine the effects of test compounds to disrupt the secondary structure conformation of amyloid fibrils. In one study, as described in this example, circular dichroism spectroscopy was used to determine the effects of different compounds of the invention on β-sheet conformation of Aβ 1-42 fibrils. For this study, Aβ 1-42 (Bachem Inc., Torrance, Calif.) was first dissolved in a 2 mM NaOH solution, maintaining the pH of these solutions above 10. […] Aβ 1-42 was then incubated at 37° C. in the absence or presence of different compounds at an Aβ:test compound wt/wt ratios of 1:0.1, 1:1 and 1:10. After 3 days of incubation, CD spectra were recorded on a Jasco 810 spectropolarimeter (Easton, Md.). All CD spectra were collected with 0.05 cm quartz cells. Wavelength traces were scanned from 190-260 nm at 0.5 nm increments with a bandwidth of 5 nm, at a scan speed of 10 nm/minute, a response time of 32 seconds, and a data pitch of 0.5 nm. The whole system was equilibrated and continuously flushed with nitrogen at 10 ml/minute. […] Ellipticity in degrees was converted to MRE ([Q]; molar residue ellipticity) using the formula [Q]=100•[…]; where Q is the ellipticity in degrees; […]

Aβ 1-42 fibrils [4] = molecular target: T3, Aβ 1-42 fibrils; assay: Congo red binding assay with Aβ 1-42 fibrils; details: 3-day incubation
Experimental: as §1, with “a” for “a given”, “Aβ)” for “IAPP)”, “Aβ 1-42” for “IAPP”, “Aβ.” for “IAPP.”
In one study, the ability of Aβ fibrils to bind Congo red in the absence or presence of increasing amounts of the compounds or EDTA (at Aβ:test compound weight ratios of 1:1, 1:0.1, 1:0.01 or 1:0.001) was determined.

IAPP fibrils [5] = molecular target: T2, IAPP fibrils; assay: Thioflavin T fluorometry - disruption of type 2 diabetes IAPP fibrils; details: 25 μM pre-fibrillized IAPP, 37° C., 3 days, read-out: % Inhibition IAPP (result ± S.D.)
Experimental: In this assay Thioflavin T binds specifically to fibrillar amyloid, and this binding produces a fluorescence enhancement at 485 nm that is directly proportional to the amount of IAPP fibrils present. The higher the fluorescence, the greater the amount of IAPP fibrils present (Naki et al, Lab. Invest. 65:104-110, 1991; Levine III, Protein Sci. 2:404-410, 1993; Amyloid: Int. J. Exp. Clin. Invest. 2:1-6, 1995).
as §2, with “IAPP” for “Aβ 1-42”, “IAPP:test” for “Aβ:test”

[6] = IAPP:test compound wt/wt ratio 1:0.001
[7] = IAPP:test compound wt/wt ratio 1:0.1
[8] = IAPP:test compound wt/wt ratio 1:1
[9] = Aβ:test compound wt/wt ratio 1:0.1
[10] = Aβ:test compound wt/wt ratio 1:1

T3 sequence (P05067 672-713): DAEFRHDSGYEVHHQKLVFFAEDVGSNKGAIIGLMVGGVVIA
T1 sequence (P05067 672-713): as above

For Oc1ccc(CCc2ccc(O)c(O)c2)cc1O [Compound 4, 1,2-bis(3,4-dihydroxyphenyl)ethane], the “detection of Aβ 1-42 monomers (~4 kilodalton band) on Western blot” value (monomeric Aβ 1-42) was “not detected”, the “% Inhibition IAPP (result ± S.D.), Congo red binding” value (from here on “% Inhibition IAPP”) (IAPP fibrils [1]; [6]) was 0.0 ± 1.05% and the “% Inhibition IAPP” value (IAPP fibrils [1]; [7]) was 25.4 ± 4.68%. The “% Inhibition IAPP” value (IAPP fibrils [1]; [8]) was 68.9±1.22%, the inhibition (Aβ 1-42 fibrils [2]; Aβ:test compound wt/wt ratio 1:0.001) was 26.8 ± 4.8% and the inhibition (Aβ 1-42 fibrils [2]; [9]) was 97.4 ± 0.4%. For the same compound, the inhibition (Aβ 1-42 fibrils [2]; [10]) was 98.5 ± 0.77%, the “disruption of β-sheet structure in Aβ 1-42 fibrils (CD minima at 218 nm)” value (Aβ 1-42 fibrils [3]) was “marked disruption of β-sheet structure” and the “% Inhibition Aβ (result ± S.D.), Congo red binding” value (“% Inhibition Aβ” below) (Aβ 1-42 fibrils [4]; Aβ:test compound wt/wt ratio 1:0.01) was 16.4 ± 2.02%. The “% Inhibition Aβ” value (Aβ 1-42 fibrils [4]; [9]) was 46.8 ± 1.28%, the “% Inhibition Aβ” value (Aβ 1-42 fibrils [4]; [10]) was 73.0 ± 0.90% and the inhibition (IAPP fibrils [5]; [6]) was 17.3 ± 4.07%. The inhibition (IAPP fibrils [5]; IAPP:test compound wt/wt ratio 1:0.01) was 63.2 ± 2.09%, the inhibition (IAPP fibrils [5]; [7]) was 96 ± 1% and the inhibition (IAPP fibrils [5]; [8]) was 99.7 ± 0.23%.
